GI50 and TGI data for 9 molecules are collected here from PubChem BioAssay (NCI).

Test systems include NCI-H226 lung; ACHN renal; SF-295 CNS; SNB-19 CNS; M14 melanoma; CAKI-1 renal; HOP-92 NSCLC; MALME-3M melanoma; OVCAR-3 ovarian; HCT-15 colon.
Experiment in all cases: inhibition of tumour cell growth, NCI panel, 48 h

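Briefly, cells in 96-well plates were exposed to five compound concentrations for 48 h, and endpoints were estimated by linear interpolation. GI50: concentration for 50% inhibition of growth. The concentration for full growth arrest is given as TGI.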

For `Fc1ccc(-c2nn(-c3ccccc3)cc2-c2nc3ccccc3o2)cc1`, the GI50 in the test on NCI-H226 lung is 13.6 µM; with ACHN renal, 4.1 µM; with SF-295 CNS it was 2.32 µM; in the test on SNB-19 CNS, 4.82 µM; with M14 melanoma, 3.91 µM; in the test with CAKI-1 renal it was 3.13 µM. Also, the GI50 is 0.158 µM with HOP-92 NSCLC, 1.71 µM in the test on MALME-3M melanoma, 2.87 µM in the test on OVCAR-3 ovarian and 1.83 µM in the test with HCT-15 colon. For the same molecule, the TGI was 32 µM with NCI-H226 lung; more than 100 µM in the test with ACHN renal; 8.3 µM in the test with SF-295 CNS; 53.1 µM in the test with SNB-19 CNS; 15.1 µM with M14 melanoma; more than 100 µM with CAKI-1 renal. In addition, the TGI was determined as 4.48 µM with HOP-92 NSCLC, 5.99 µM in the test on MALME-3M melanoma, 48.7 µM in the test with OVCAR-3 ovarian and 39 µM with HCT-15 colon.

On to `COc1cc2c(cc1O)[C@H](Cc1ccc(Oc3cc(C[C@H]4c5cc(OC)c(OC)cc5CCN4C)ccc3OC)cc1)NCC2`, for which the TGI with NCI-H226 lung was 26.2 µM; in the test on ACHN renal, 23.6 µM; in the test on SF-295 CNS, 24.2 µM; in the test on SNB-19 CNS it was 31.9 µM; in the test with M14 melanoma it was 3.56 µM; in the test with CAKI-1 renal, 19.8 µM. In addition, the TGI worked out at 20.1 µM in the test on HOP-92 NSCLC, 39.6 µM in the test with MALME-3M melanoma, 22.4 µM in the test with OVCAR-3 ovarian and 21.4 µM in the test on HCT-15 colon.

Take `CCOc1ccc2nc(NC(=O)/C(CC(=O)CC(C3=C(O)c4ccccc4CC3=O)c3ccccc3)=N\O)sc2c1` (stereo not given): the TGI with NCI-H226 lung, in the test on ACHN renal, in the test with SF-295 CNS, in the test on SNB-19 CNS, with M14 melanoma and in the test on CAKI-1 renal was more than 100 µM in each case. Besides, the TGI with HOP-92 NSCLC, in the test with MALME-3M melanoma, with OVCAR-3 ovarian and in the test on HCT-15 colon was more than 100 µM in each case.

For the molecule `CN(C)CCNC(=O)c1cccc2nc3c(Cl)cccc3nc12`, the TGI in the test on NCI-H226 lung is 13.5 µM; with ACHN renal, 30.5 µM; with SF-295 CNS, more than 27.1 µM; in the test on SNB-19 CNS, 57 µM; in the test with M14 melanoma, more than 36.8 µM; in the test on CAKI-1 renal, more than 70.8 µM. Moreover, the TGI is more than 24.2 µM in the test with HOP-92 NSCLC, 8.05 µM in the test with MALME-3M melanoma, more than 63.6 µM in the test on OVCAR-3 ovarian and 34.6 µM with HCT-15 colon.

Turning to `CCOC(=O)c1cc(-c2ccc([N+](=O)[O-])cc2)n(-c2ccc(C(=O)O)c(O)c2)c1C`, the GI50 is 11.2 µM in the test with NCI-H226 lung; 2.94 µM with ACHN renal; 3.72 µM in the test with SF-295 CNS; 5.66 µM in the test with SNB-19 CNS; 4.26 µM with M14 melanoma; 11.6 µM in the test with CAKI-1 renal. For the same molecule, the GI50 in the test with HOP-92 NSCLC is 2.09 µM; in the test with MALME-3M melanoma it was 2.23 µM; in the test on OVCAR-3 ovarian, 2.86 µM; in the test with HCT-15 colon it was 3.02 µM. Further, the TGI in the test on NCI-H226 lung stood at 33.9 µM; in the test with ACHN renal, 9.38 µM; in the test with SF-295 CNS, 19.6 µM; with SNB-19 CNS, 19.1 µM; in the test with M14 melanoma, 15.2 µM; in the test on CAKI-1 renal, 30.1 µM. For the same molecule, the TGI was 13.4 µM with HOP-92 NSCLC, 12.5 µM with MALME-3M melanoma, 9.53 µM in the test with OVCAR-3 ovarian and 12.2 µM with HCT-15 colon.

Regarding `CC(C)(C)C1=NC(S)NC(CCC(=O)Nc2ccccc2[N+](=O)[O-])=C1` (stereo not given), the TGI with NCI-H226 lung, in the test with ACHN renal, in the test with SF-295 CNS, in the test on SNB-19 CNS, in the test with M14 melanoma and with CAKI-1 renal was more than 100 µM throughout. The TGI in the test on HOP-92 NSCLC, with MALME-3M melanoma, in the test with OVCAR-3 ovarian and with HCT-15 colon was more than 100 µM in each case.

Turning to `CN=C1NC(=O)/C(=C/c2ccc3ncccc3c2)S1`, the GI50 in the test on NCI-H226 lung is 8.16 µM; in the test with ACHN renal, 6.77 µM; with SF-295 CNS, 7.97 µM; in the test with SNB-19 CNS it was 9.5 µM; in the test with M14 melanoma, 9.6 µM; in the test with CAKI-1 renal, 4.6 µM. The GI50 is 8.03 µM with HOP-92 NSCLC, 16 µM in the test on MALME-3M melanoma, 9.11 µM with OVCAR-3 ovarian and 6.09 µM in the test on HCT-15 colon. Further, the TGI in the test with NCI-H226 lung is more than 25 µM; with ACHN renal it was more than 25 µM; in the test on SF-295 CNS, more than 25 µM; in the test with SNB-19 CNS, more than 25 µM; in the test on M14 melanoma it was more than 25 µM; in the test with CAKI-1 renal it was more than 20.9 µM. The TGI with HOP-92 NSCLC, in the test with MALME-3M melanoma, in the test with OVCAR-3 ovarian and in the test on HCT-15 colon was more than 25 µM in each case.

As for `N#Cc1c(O)c2c(c(O)c1C#N)C(=O)c1ccccc1C2=O`, the GI50 with NCI-H226 lung is 2.83 µM; in the test on ACHN renal it was 2.72 µM; in the test with SF-295 CNS, 1.88 µM; in the test with SNB-19 CNS it was 2.86 µM; with M14 melanoma, 0.41 µM; in the test with CAKI-1 renal it was 2.65 µM. Besides, the GI50 with HOP-92 NSCLC was 2.2 µM; in the test with MALME-3M melanoma it was 0.475 µM; in the test with OVCAR-3 ovarian it was 0.745 µM; in the test with HCT-15 colon it was 2.32 µM. Besides, the TGI in the test on NCI-H226 lung was 25.3 µM; in the test on ACHN renal, 9.96 µM; in the test on SF-295 CNS, 14.2 µM; in the test on SNB-19 CNS, 22.2 µM; with M14 melanoma, 1.92 µM; in the test on CAKI-1 renal, 8.3 µM. Further, the TGI was 5.92 µM in the test on HOP-92 NSCLC, 1.7 µM in the test with MALME-3M melanoma, 2.94 µM in the test with OVCAR-3 ovarian and more than 28.1 µM in the test with HCT-15 colon.

As to `COc1ccc(-n2cc(-c3ccc(OC)c(OC)c3)[nH]c2=S)cc1Cl`, the GI50 with NCI-H226 lung is more than 100 µM; in the test on ACHN renal, more than 100 µM; in the test with SF-295 CNS, 41 µM; in the test with SNB-19 CNS it was more than 100 µM; in the test on M14 melanoma it was more than 100 µM; in the test on CAKI-1 renal, more than 100 µM. The GI50 was 37.3 µM with HOP-92 NSCLC, more than 100 µM in the test with MALME-3M melanoma, more than 100 µM with OVCAR-3 ovarian and more than 100 µM in the test on HCT-15 colon. Moreover, the TGI with NCI-H226 lung, in the test on ACHN renal, in the test on SF-295 CNS, in the test on SNB-19 CNS, in the test on M14 melanoma and in the test on CAKI-1 renal was more than 100 µM each time. The TGI in the test with HOP-92 NSCLC, with MALME-3M melanoma, with OVCAR-3 ovarian and in the test with HCT-15 colon was more than 100 µM in each case.
